Patent US20090270306A1, “Glass Storage” (priority 2005, published 2009)
Like-named read-outs stand apart in the source and are kept apart here.

Assays:
[1] = initial pKa, cited from earlier work
[2] = pH behaviour on addition of sodium hydroxide (FIG. 1); assay type: physicochemical; conditions: 0.2 g in 200 ml water, 0.1M sodium hydroxide added; during almost the entire addition
[3] = 1% solution in water
[4] = buffers tested for stain inhibitor performance (Table 1)
[5] = other suitable buffer compounds (Table 3)

SMILES	pKa [1, 4]	pKa [1, 5]	further results
O=S(=O)(O)CCCNC(CO)(CO)CO [TAPS, N-[tris(hydroxymethyl)methyl]-3-aminopropanesulphonic acid]	8.4	–	–
O=S(=O)(O)CCNC1CCCCC1 [CHES, 2-(cyclohexylamino) ethanesulphonic acid]	–	9.5	–
O=S(=O)(O)CC(O)CN1CCN(CC(O)CS(=O)(=O)O)CC1 (stereo not drawn) [POPSO, piperazine-N-N′-bis (2-hydroxypropanesulphonic acid)]	–	7.8	–
O=C(O)CNC(CO)(CO)CO [Tricine, N-[tris (hydroxymethyl)methy] glycine]	8.2	–	–
O=C(O)CCCCC(=O)O [adipic acid]	–	–	pH during addition of alkali [2]: < 5; pH of solution [3]: 2.8
